Laboratory results published in US8106236B2, “Triaryl compounds and derivates thereof” (Ortho-McNeil Pharmaceutical, Inc., priority 2006, dated 2012).

These molecules were tested against γ-secretase (Homo sapiens, UniProt P49768) (assay: Screening for γ-secretase-modulating activity, Aβ42 in SKNBE2 cells carrying APP 695 wild type). Details: read-out: WTAPP SKNBE2 Aβ 42% Inhibition at 3 μM.
Format: cell-based
Protocol: Screening of the Compounds of the Invention for γ-Secretase-Modulating Activity
Cells were grown to near confluency.

inhibition at 3 µM | SMILES
53% | CC(C)CC(C(=O)O)c1cc(-c2ccc(C(F)(F)F)cc2)cc(-c2ccc(F)cc2F)c1 (centres unmarked) [Compound 2, 2-(2,4-Difluoro-4″-trifluoromethyl-[1,1′;3′,1″]terphenyl-5′-yl)-4-methyl-pentanoic acid]
65% | CC(C)CC(C(=O)O)c1cc(-c2ccc(C(F)(F)F)cc2)cc(-c2ccccc2C(F)(F)F)c1 (centres unmarked) [Compound 6, 2-(2,4″-Bis-trifluoromethyl-[1,1′;3′,1″]terphenyl-5′-yl)-4-methyl-pentanoic acid]
-1% | CC(C)CC(C(=O)O)c1cc(-c2ccc(C(F)(F)F)cc2)cc(-c2ccccc2F)c1 (centres unmarked) [Compound 8, 2-(2-Fluoro-4″-trifluoromethyl-[1,1′;3′,1″]terphenyl-5′-yl)-4-methyl-pentanoic acid]
68% | Cc1ccc(-c2cc(-c3ccc(C(F)(F)F)cc3)cc(C(CC(C)C)C(=O)O)c2)cc1 (centres unmarked) [Compound 11, 4-Methyl-2-(4-methyl-4″-trifluoromethyl-[1,1′;3′,1″]terphenyl-5′-yl)-pentanoic acid]
86% | CC(C)CC(C(=O)O)c1cc(-c2ccc(C(F)(F)F)cc2)cc(-c2cccc(C(F)(F)F)c2)c1 (centres unmarked) [Compound 12, 2-(3,4″-Bis-trifluoromethyl-[1,1′;3′,1″]terphenyl-5′-yl)-4-methyl-pentanoic acid]
46% | CC(C)CC(C(=O)O)c1cc(-c2ccc(C(F)(F)F)cc2)cc(-c2ccc(S(C)(=O)=O)cc2)c1 (centres unmarked) [Compound 21, 2-(4-Methanesulfonyl-4″-trifluoromethyl-[1,1′;3′,1″]terphenyl-5′-yl)-4-methyl-pentanoic acid]
84% | CC(C)CC(C(=O)O)c1cc(-c2ccc(C(F)(F)F)cc2)cc(-c2cc(Cl)ccc2Cl)c1 (centres unmarked) [Compound 23, 2-(2,5-Dichloro-4″-trifluoromethyl-[1,1′;3′,1″]terphenyl-5′-yl)-4-methyl-pentanoic acid]
53% | COc1ccc(-c2cc(-c3ccc(C(F)(F)F)cc3)cc(C(CC(C)C)C(=O)O)c2)cc1 (centres unmarked) [Compound 24, 2-(4-Methoxy-4″-trifluoromethyl-[1,1′;3′,1″]terphenyl-5′-yl)-4-methyl-pentanoic acid]
82% | C=C(C)CC(C(=O)O)c1cc(-c2ccc(C(F)(F)F)cc2)cc(-c2ccc(C(F)(F)F)cc2)c1 (centres unmarked) [Compound 25, 2-(4,4″-Bis-trifluoromethyl-[1,1′;3′,1″]terphenyl-5′-yl)-4-methyl-pent-4-enoic acid]
80% | CC(C)CC(C(=O)O)c1cc(-c2cc(F)cc(F)c2)cc(-c2cc(F)cc(C(F)(F)F)c2)c1 (centres unmarked) [Compound 32, 4-Methyl-2-(3,5,3″-trifluoro-5″-trifluoromethyl-[1,1′;3′,1″]terphenyl-5′-yl)-pentanoic acid]
73% | CC(C)CC(C(=O)O)c1cc(-c2cccc(C#N)c2)cc(-c2cc(C(F)(F)F)cc(C(F)(F)F)c2)c1 (centres unmarked) [Compound 34, 2-(3-Cyano-3″,5″-bis-trifluoromethyl-[1,1′;3′,1″]terphenyl-5′-yl)-4-methyl pentanoic acid]
0% | CC(C)CC(C(=O)O)c1cc(-c2ccc(C(F)(F)F)cc2)cc(-c2cc(F)cc(C#N)c2)c1 (centres unmarked) [Compound 36, 2-(5-Cyano-3-fluoro-4″-trifluoromethyl-[1,1′;3′,1″]terphenyl-5′-yl)-4-methyl-pentanoic acid]
84% | CC(C)CC(C(=O)O)c1cc(-c2ccc(C#N)cc2)cc(-c2cc(C(F)(F)F)cc(C(F)(F)F)c2)c1 (centres unmarked) [Compound 37, 2-(4-Cyano-3″,5″-bis-trifluoromethyl-[1,1′;3′,1″]terphenyl-5′-yl)-4-methyl pentanoic acid]
53% | CC(C)CC(C(=O)O)c1cc(-c2cc(F)cc(F)c2)cc(-c2cc(F)cc(F)c2)c1 (centres unmarked) [Compound 38, 4-Methyl-2-(3,5,3″,5″-tetrafluoro-[1,1′;3′,1″]terphenyl-5′-yl)-pentanoic acid]
